pIC50: −log10 of the molar value. Marks after values point to notes of the source that are not given here. One block for each compound: values may come before it.
Columns and labels:
[1] = tested on: metabotropic glutamate receptors; assay: Displacement of 1S,3R-ACPD-sensitive [3H]glutamate binding to rat brain cell membranes; conditions: crude membranes of rat forebrain
[2] = tested on: metabotropic glutamate receptors; assay: as above; conditions: crude membranes of rat forebrain; for pIC50: inhibition of [3H]glutamate binding
Method: The binding of [^3H]glutamate was conducted with crude membranes of rat forebrain as described by Schoepp and True. Schoepp and True, Neuroscience Lett., 145, 100-104 (1992) and True and Schoepp, Society for Neuroscience Abstracts, 19, 470 (1993). IC50 values for the inhibition of [^3H]glutamate binding, or the percent displacement of [^3H]glutamate binding at a 10 µM concentration, of the formula I compound, is shown in Table II.

Rats = assay: Conditioned active avoidance model; type: in vivo
Text: This model was developed in the early 50s and 60s (Pfeiffer & Jenney, Ann. N.Y. Acad. Sci., 66:[…], 1957; Maffii, J. Pharm. Pharmacol., 11: 129-139, 1959; Cook & Weidley, Ann; N.Y. Acad. Sci., 66: […], 1957; Janke, Handbook of Experimental Pharmacology, Vol. 55/I, New York: Plenum Press, 1978) and is still the primary model used to screen compounds for antipsychotic efficacy.
Rats were individually placed in a sound attenuated, two compartment test chamber. Active avoidance testing consisted of 20 trials each day. On each trial a light (130 v.) and a sound (85 dbA) were delivered simultaneously and 5 seconds later a 5 mA shock was delivered to the floor of the chamber. After 5 seconds the footshock, the light, and the sound were terminated. The animals learned to move from one side of the chamber to the other side when the light and sound cues were presented to avoid shock (avoidance responding) or the rat moved when the shock was administered (escape). Data were tabulated as mean percent escape or mean percent to avoidance for each test day. Prior to drug testing all animals were trained to successfully avoid shock delivery on 90% of trials.
This profile on conditioned avoidance is indicative of antipsychotic efficacy.

[3] = 0, 1, 3, 10 and 30mg/kg, i.p. 20 minutes prior to testing

Structure (SMILES): NC(CC(Cc1ccccc1)Cc1ccccc1)(C(=O)O)[C@H]1C[C@@H]1C(=O)O (mixture of isomers) [Example 51, 2SR- and 2RS-2-amino-2-(1SR,2SR-2-carboxycyclopropan-1-yl)-4-benzyl-5-phenylpentanoic acid]
ACPD-Sensitive [^3H]Glutamate Binding % Displacement @ 1 µM ([1]; 1 µM compound): (15% @ 1 µM)

Structure (SMILES): NC(CCc1cccc(F)c1)(C(=O)O)[C@H]1C[C@@H]1C(=O)O (mixture of isomers) [Example 81, 2SR- and 2RS-2-amino-2-(1SR,2SR-2-carboxycyclopropan-1-yl)-4-(3-fluorophenyl)butanoic acid]
ACPD-Sensitive [^3H]Glutamate Binding % Displacement @ 0.1 µM ([1]; 0.1 µM compound): (57% @ 0.1 µM)

Structure (SMILES): Cc1cccc(CCC(N)(C(=O)O)C2CC2C(=O)O)c1 (stereo not drawn) [Example 69, 2R-2-amino-2-(1R ,2R-2-carboxycyclopropan-1-yl)-4-(3-methylphenyl)butanoic acid]
ACPD-Sensitive [^3H]Glutamate Binding % Displacement at 10 µM ([2]; 10 µM compound, 10 µM): (13%)^d

pIC50 [2]: 5.09
Structure (SMILES): Cc1cccc(CCC(N)(C(=O)O)C2CC2C(=O)O)c1 [Example 70, 2S-2-amino-2-(1R,2R,2-carboxycyclopropan-1-yl)-4-(3-methylphenyl)butanoic acid]

pIC50 [2]: 6.28
Structure (SMILES): N[C@@](CC1c2ccccc2Oc2ccccc21)(C(=O)O)[C@H]1C[C@@H]1C(=O)O [Example 71, 2R-2 amino-2-(1S,2S-2-carboxycyclopropan-1-yl)-3-(dibenzopyran-4-yl)propanoic acid]

pIC50 [2]: 7.85
Structure (SMILES): N[C@](CC1c2ccccc2Oc2ccccc21)(C(=O)O)[C@H]1C[C@@H]1C(=O)O [Example 72]
avoidance responding (Rats; [3]): dose related decrease in avoidance responding
escape responding (Rats; [3]): not affecting escape responding
activity in the conditioned active avoidance model (Rats; summary statement): active

pIC50 [2]: 6.07
Structure (SMILES): N[C@](Cc1cccc2c1Oc1ccccc1C2)(C(=O)O)[C@@H]1C[C@H]1C(=O)O [Example 73, 2S-2 amino-2-(1R,2R-2-carboxycyclopropan-1-yl)-3-(dibenzopyran-4-yl)propanoic acid]
